Read-outs that look alike come from different tables or passages of the source.
Experiments:
[1] = format: physicochemical; conditions: for related substances (individual maximum values): 40° C. and 75% RH
Procedure: The amounts of degradation products over time under storage were measured by high-performance liquid chromatography. The maximum amount of the individual degradation products is shown. […] Therefore, the main cause of the degradation of the active pharmaceutical ingredient over time was presumably amorphous solifenacin succinate generated in the manufacturing process of the formulation.
Results of the stability of crystalline product and amorphous product of solifenacin succinate • Storage conditions: 40° C. and 75% RH • Packaging form: glass vial • Test items: related substances (individual maximum values)

[2] = biological target: muscarine M3 receptors (Homo sapiens, UniProt P20309); conditions: reported in patent reference 1; cited from earlier work
muscarine M3 receptors, sequence (P20309 whole entry): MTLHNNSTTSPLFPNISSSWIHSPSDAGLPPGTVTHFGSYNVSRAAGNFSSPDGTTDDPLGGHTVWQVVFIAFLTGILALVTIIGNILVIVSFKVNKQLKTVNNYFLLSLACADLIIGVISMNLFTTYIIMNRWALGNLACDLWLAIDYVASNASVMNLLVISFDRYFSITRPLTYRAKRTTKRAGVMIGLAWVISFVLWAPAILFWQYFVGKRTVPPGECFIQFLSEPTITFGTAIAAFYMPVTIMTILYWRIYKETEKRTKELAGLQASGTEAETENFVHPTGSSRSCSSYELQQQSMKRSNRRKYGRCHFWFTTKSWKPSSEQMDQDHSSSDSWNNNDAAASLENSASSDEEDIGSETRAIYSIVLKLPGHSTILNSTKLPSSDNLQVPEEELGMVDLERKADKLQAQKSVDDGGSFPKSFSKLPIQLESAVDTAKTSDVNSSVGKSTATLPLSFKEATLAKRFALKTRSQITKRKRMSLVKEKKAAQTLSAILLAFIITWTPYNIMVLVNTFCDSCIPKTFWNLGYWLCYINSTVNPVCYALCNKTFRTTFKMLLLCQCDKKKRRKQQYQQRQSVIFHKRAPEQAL

| Structure (SMILES) | stability under storage (in words) [1] | related substances (individual maximum values) ([1]; Open glass vial, one-week later) [%] | related substances (individual maximum values) ([1]; Open glass vial, two-week later) [%] | related substances (individual maximum values) ([1]; Sealed glass vial, one-week later) [%] | related substances (individual maximum values) ([1]; Sealed glass vial, two-week later) [%] | antagonistic action against muscarine M3 receptors (in words) [2] |
| --- | --- | --- | --- | --- | --- | --- |
| O=C(O[C@H]1CN2CCC1CC2)N1CCc2ccccc2[C@@H]1c1ccccc1 [Amorphous product, solifenacin succinate] | poorer than that of the crystalline product | 0.16 | 0.16 | 0.03 | 0.05 | – |
| O=C(O[C@H]1CN2CCC1CC2)N1CCc2ccccc2[C@@H]1c1ccccc1 [solifenacin, (1R,3′R)-3′-quinuclidinyl 1-phenyl-1,2,3,4-tetrahydro-2-isoquinoline carboxylate] | – | – | – | – | – | excellent selective antagonistic action |
